Common to all, as to details: displacement of [3H]-NMS, membranes from transfected CHO cells; separate determinations in one cell
(Loss of bound radioactivity is the signal in a displacement assay; it reports binding, not function.)

Assay [1] concerns the target T1, human muscarinic receptor subtype M4 (Hm4) (Homo sapiens, UniProt P08173).
T1 sequence (P08173 1-479): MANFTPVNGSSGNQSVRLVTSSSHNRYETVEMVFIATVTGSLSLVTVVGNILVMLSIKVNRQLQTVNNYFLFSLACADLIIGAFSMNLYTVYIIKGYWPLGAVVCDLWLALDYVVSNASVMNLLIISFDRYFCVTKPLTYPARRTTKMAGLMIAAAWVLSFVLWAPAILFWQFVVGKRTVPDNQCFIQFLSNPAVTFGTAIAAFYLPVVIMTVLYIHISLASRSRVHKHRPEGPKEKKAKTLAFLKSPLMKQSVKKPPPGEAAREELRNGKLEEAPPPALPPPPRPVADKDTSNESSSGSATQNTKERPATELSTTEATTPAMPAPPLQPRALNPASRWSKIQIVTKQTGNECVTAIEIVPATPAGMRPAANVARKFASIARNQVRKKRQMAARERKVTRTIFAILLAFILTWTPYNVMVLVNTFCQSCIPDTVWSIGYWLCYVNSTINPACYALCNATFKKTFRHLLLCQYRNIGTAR
The assay is described as follows: [3H]-NMS receptor binding in CHO cell membranes, Hm4. The method, then:
(§1) The compounds of Formula I have shown potent binding affinity for muscarinic receptors and are thus useful as muscarinicing antagonists. […] The compounds are evaluated in standard assays used to measure muscarinic receptor binding. Specifically, the compounds are evaluated for their binding affinity toward five human muscarinic receptor subtypes (M1-M5) by the method of Dorje et al., J. Pharm. Exp. Ther., 1991;256:727-733, incorporated herein by reference. The binding is determined by measuring the displacement of [^3H]-NMS binding using membranes from transfected Chinese hamster ovary (CHO) cells. All compounds are tested two to four times with duplicate tubes (SEM is ≦10% in all cases).

The target in assay [2] is human muscarinic receptor subtype M3 (Hm3) (Homo sapiens, UniProt P20309). The assay is described as follows: [3H]-NMS receptor binding in CHO cell membranes, Hm3. The method, then:
as §1

The target in assay [3] is T2, human muscarinic receptor subtype M5 (Hm5) (Homo sapiens, UniProt P08912).
T2 sequence (P08912 1-532): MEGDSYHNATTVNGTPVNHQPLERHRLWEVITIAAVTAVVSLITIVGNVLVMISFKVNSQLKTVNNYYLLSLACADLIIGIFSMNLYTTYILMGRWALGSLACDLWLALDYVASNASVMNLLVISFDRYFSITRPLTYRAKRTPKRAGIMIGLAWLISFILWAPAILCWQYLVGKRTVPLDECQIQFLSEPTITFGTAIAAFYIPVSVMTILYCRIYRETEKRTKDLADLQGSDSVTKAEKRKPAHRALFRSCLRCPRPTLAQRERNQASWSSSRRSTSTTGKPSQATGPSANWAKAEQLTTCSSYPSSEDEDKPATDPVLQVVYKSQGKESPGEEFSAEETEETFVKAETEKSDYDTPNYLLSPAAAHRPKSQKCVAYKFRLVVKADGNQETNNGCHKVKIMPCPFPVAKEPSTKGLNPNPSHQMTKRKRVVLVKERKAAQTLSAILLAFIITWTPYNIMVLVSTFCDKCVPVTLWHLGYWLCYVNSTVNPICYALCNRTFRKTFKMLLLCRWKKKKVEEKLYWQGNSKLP
The experiment in a line: [3H]-NMS receptor binding in CHO cell membranes, Hm5. The method, then:
as §1

The target of assay [4] is T3, human muscarinic receptor subtype M1 (Hm1) (Homo sapiens, UniProt P11229).
T3 sequence (P11229 1-460): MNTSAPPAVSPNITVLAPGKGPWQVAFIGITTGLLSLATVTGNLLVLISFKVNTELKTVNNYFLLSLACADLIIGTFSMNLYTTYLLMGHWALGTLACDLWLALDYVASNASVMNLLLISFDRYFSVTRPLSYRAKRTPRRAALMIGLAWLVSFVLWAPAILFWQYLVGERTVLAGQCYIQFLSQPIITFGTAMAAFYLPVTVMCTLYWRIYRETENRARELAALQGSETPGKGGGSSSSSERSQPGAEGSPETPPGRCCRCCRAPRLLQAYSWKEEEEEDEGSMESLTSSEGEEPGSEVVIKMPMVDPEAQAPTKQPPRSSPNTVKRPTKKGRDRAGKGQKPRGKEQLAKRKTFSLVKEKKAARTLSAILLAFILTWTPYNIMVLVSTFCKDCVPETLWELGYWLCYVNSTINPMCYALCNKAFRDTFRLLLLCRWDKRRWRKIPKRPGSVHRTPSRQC
The assay is described as follows: [3H]-NMS receptor binding in CHO cell membranes, Hm1. The method, then: as §1

The target in assay [5] is T4, human muscarinic receptor subtype M2 (Hm2) (Homo sapiens, UniProt P08172).
T4 sequence (P08172 1-466): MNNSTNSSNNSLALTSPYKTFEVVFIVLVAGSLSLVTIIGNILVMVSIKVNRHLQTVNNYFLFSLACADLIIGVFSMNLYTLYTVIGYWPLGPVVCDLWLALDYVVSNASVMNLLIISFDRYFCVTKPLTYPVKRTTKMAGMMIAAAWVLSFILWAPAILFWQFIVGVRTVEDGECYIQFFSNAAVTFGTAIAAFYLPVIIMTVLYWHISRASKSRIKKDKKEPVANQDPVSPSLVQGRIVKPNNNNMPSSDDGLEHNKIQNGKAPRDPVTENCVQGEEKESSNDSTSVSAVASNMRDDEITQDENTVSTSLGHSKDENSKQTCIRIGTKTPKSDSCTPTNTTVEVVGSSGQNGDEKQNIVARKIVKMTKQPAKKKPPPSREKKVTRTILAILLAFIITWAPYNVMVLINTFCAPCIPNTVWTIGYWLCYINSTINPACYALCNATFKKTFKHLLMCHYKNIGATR
The assay is described as follows: [3H]-NMS receptor binding in CHO cell membranes, Hm2. How it is done: as §1

We go through four compounds from patent publication US6500837B2, “Fused ring system containing indole as M4 selective aza-anthracene muscarinic receptor antagonists” (Warner-Lambert Company, priority 2000, dated 2002).

pIC50: −log10 of the molar value. Values joined by “and” are separate entries in the source; they are usually repeats but may differ in a detail not shown here. Equal values may be shown once. Some results are limits rather than exact numbers.

Sequence of human muscarinic receptor subtype M3 (Hm3) (P20309 whole entry): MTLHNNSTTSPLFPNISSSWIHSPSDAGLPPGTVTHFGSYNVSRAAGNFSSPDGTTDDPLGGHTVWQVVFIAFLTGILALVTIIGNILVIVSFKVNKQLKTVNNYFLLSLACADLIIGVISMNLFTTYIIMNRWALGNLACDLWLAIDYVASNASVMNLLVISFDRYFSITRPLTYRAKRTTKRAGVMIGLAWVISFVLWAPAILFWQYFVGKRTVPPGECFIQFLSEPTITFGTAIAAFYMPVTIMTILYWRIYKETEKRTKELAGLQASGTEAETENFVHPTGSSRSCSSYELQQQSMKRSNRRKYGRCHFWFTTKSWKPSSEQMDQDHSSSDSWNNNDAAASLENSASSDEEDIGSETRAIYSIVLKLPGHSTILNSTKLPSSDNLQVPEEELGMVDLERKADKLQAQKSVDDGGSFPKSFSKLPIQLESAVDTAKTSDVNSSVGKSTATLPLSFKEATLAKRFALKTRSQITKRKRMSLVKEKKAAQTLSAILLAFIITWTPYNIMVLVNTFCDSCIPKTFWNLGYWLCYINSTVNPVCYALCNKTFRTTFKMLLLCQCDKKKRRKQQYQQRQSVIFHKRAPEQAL

As for `CCOC(=O)c1c(C)[nH]c2cc(Br)c3c(c12)CN1CCc2cc(OC)ccc2C1C3` (stereo not shown) [Compound 1, 5-Bromo-9-methoxy-2-methyl-6,11,12,13-tetrahydro-3H,6aH-3,12a-diaza-benzo[a]cyclopent[h]anthracene-1-carboxylic acid ethyl ester], the negative logarithm of the IC50 (pIC50) in assay [1] was 5.52 and 6.22; in assay [2] it was < 5.00 and 4.70; in assay [3], 5.30 and 5.40; in assay [4], 6.40; in assay [5], 5.52.

In the case of `CCCc1[nH]c2cc(Br)c3c(c2c1C(=O)OCC)CN1CCc2cc(OC)ccc2C1C3` (stereo not shown) [Compound 2, 5-Bromo-9-methoxy-2-propyl-6,11,12,13-tetrahydro-3H6aH-3,12a-diaza-benzo[a]cyclopent[h]anthracene-1-carboxylic acid ethyl ester], the pIC50 is 5.70 and 5.52 in assay [1]; below 5.00 in assay [2]; 5.00 and 4.82 in assay [3]; 6.30 and 6.40 in assay [4]; 6.10 and 5.40 in assay [5].

With `CCOC(=O)c1c(C)[nH]c2ccc3c(c12)CN1CCc2cc(OC)ccc2C1C3` (stereo not shown) [Compound 3, 9-methoxy-2-methyl-6,11,12,13-tetrahydro-3H,6aH-3,12a-diaza-benzo[a]cyclopent[h]anthracene-1-carboxylic acid ethyl ester], the negative-log IC50 (pIC50) in assay [1] was < 5.00 and 4.70; in assay [2], < 5.00 and 5.30; in assay [3], 5.00 and 5.05; in assay [4] it was < 5.00 and 4.60; in assay [5], 4.60.

As to `CCCc1[nH]c2ccc3c(c2c1C(=O)OCC)CN1CCc2cc(OC)ccc2C1C3` (stereo not shown) [Compound 4, 9-Methoxy-2-propyl-6,11,12,13-tetrahydro-3H6aH-3,12a-diaza-benzo[a]cyclopent[h]anthracene-1-carboxylic acid ethyl ester], the pIC50 in assay [1] is below 5.00; in assay [2], below 5.00; in assay [4] it was below 5.00; in assay [5], 4.70 and 4.82.

As a reminder, the pIC50 is the IC50 on a negative log10 scale, so that one unit is a factor of ten.
